Results on one compound are retold here after publication PMC10895668, “Lead Optimization of the 5-Phenylpyrazolopyrimidinone NPD-2975 toward Compounds with Improved Antitrypanosomal Efficacy” (Journal of Medicinal Chemistry, 2024).

The subject of one series is T. b. brucei. Nature of the series: Trypanosoma susceptibility assay (resazurin viability). The series is classed as cell-based. To be noted: for IC50: Trypanosoma brucei. As for the experimental part: (§1) The antiparasitic assays were carried out exactly as described in Blaazer et al.([39]) Metabolic stability, pharmacokinetics, acute mouse infection model results were collected as described previously.[21] All animal experiments were conducted in compliance with institutional guidelines and following approval by the Ethical Committee of the University of Antwerp, Belgium [UA-ECD 2014–96]. Female Swiss mice (15–20 g), were purchased from Janvier (Le Genest Saint Isle, France). […] Animals were treated PO b.i.d. for 5 days at 25 and 50 mg/kg 31c. For the SL-RNA qPCR experiments blood was collected sublingually and subjected to erythrocyte lysis before extracting RNA with the QIAamp RNA Blood Mini kit (Qiagen). […] Small pieces of fat, brain, and spleen tissue were excised and immediately transferred to RNA later (Qiagen) and incubated overnight at 4 °C. RNA extraction was performed as instructed in the RNeasy Mini Plus Kit manual (Qiagen). The one-step SensiFAST SYBR Hi-Rox PCR kit (Bioline USA Inc., via Gentaur Belgium BVBA, Kampenhout, Belgium) was used for the PCR with the following forward and reverse primers, respectively 5′-[…]-3′ and 5′-[…]-3′. An initial activation step of 10 min at 45 °C and 10 min at 95 °C was used, followed by the amplification step for 40 cycles (15 s at 95 °C, 15 s 50 °C and 15 s at 60 °C). At last, the melting curves were generated with an increment of 0.3 °C (15 s at 95 °C 1 min at 45 °C and 15 s at 95 °C). The PCR was run on the Step One Plus real-time PCR system (Applied Biosystems, California, USA). An additional qPCR was performed with the mouse housekeeping gene Eef2 to confirm successful RNA extraction.
In vitro experiments were carried out with the bloodstream form of the T. b. brucei Squib strain (suramin-sensitive). Parasites were routinely cultured in T25 culture flasks containing 10 mL of HMI-9 medium (Invitrogen) supplemented with 10% heat-inactivated fetal bovine serum (Life Technologies) and 2.5 μg/mL Geneticin (Life Technologies). MRC-5SV2 cells were cultured in MEM + Earl’s salts-medium, supplemented with 2 mM L-glutamine, 16.5 mM NaHCO3, and 5% inactivated fetal calf serum. All cultures and assays were conducted at 37 °C under an atmosphere of 5% CO2.
Parasites were counted in a KOVA counting chamber and diluted to 1.5 × 10^4 parasites/well of a 96-well plate (200 μL total volume), upon which the prediluted test compounds were added. Drug exposure covered a 72 h period without renewal of the culture medium. After 3 days of incubation, parasite growth was assessed fluorimetrically after addition of 50 μL of resazurin per well. After 6 h (T. b. rhodesiense) or 24 h (T. b. brucei) at 37 °C, fluorescence is measured (λex 550 nm, λem 590 nm). Parasite viability was assessed using the resazurin viability assay, and drug activity was calculated as percentage viability reduction compared to nontreated controls.
For orientation: The colour change of resazurin is a common sign of viable cells or microbes.

The next series concerns MRC-5 cells. Nature of the series: MRC-5SV2 cytotoxicity assay. The series is classed as cell-based. To be noted: Homo sapiens, MRC5, 72 h; cytotoxicity, 3 days incubation; mean ± SD, n ≥ 2; read-out: pIC50 MRC-5 (converted). As for the experimental part:
The synthesized analogues were tested against T. b. brucei, and inhibition of MRC-5 (human lung fibroblasts MRC-5SV40) cell proliferation was included as cytotoxicity control. […] Analogue 17 with an amino group instead of the carbonyl group was prepared to improve solubility for further modification. […] In vitro experiments were carried out with the bloodstream form of the T. b. brucei Squib strain (suramin-sensitive). […] All cultures and assays were conducted at 37 °C under an atmosphere of 5% CO2. […] Cell growth is compared to untreated-control wells (100% cell growth) and medium-control wells (0% cell growth). […] After 4 h at 37 °C, fluorescence is measured (λex 550 nm, λem 590 nm). The results are expressed as % reduction in cell growth/viability compared to control wells and an IC50 and an IC90 (50 and 90% inhibitory concentrations) are determined.

A further series has as its system T. b. rhodesiense. Nature of the series: Trypanosoma susceptibility assay (resazurin viability). The format is cell-based. To be noted: Trypanosoma brucei, mean ± SD, n ≥ 2, read-out: pIC50 T. b. rhodesiense (converted). The method, then:
The antiparasitic assays were carried out exactly as described in Blaazer et al.([39]) Metabolic stability, pharmacokinetics, acute mouse infection model results were collected as described previously.[21] All animal experiments were conducted in compliance with institutional guidelines and following approval by the Ethical Committee of the University of Antwerp, Belgium [UA-ECD 2014–96]. Female Swiss mice (15–20 g), were purchased from Janvier (Le Genest Saint Isle, France). […] Animals were treated PO b.i.d. for 5 days at 25 and 50 mg/kg 31c. For the SL-RNA qPCR experiments blood was collected sublingually and subjected to erythrocyte lysis before extracting RNA with the QIAamp RNA Blood Mini kit (Qiagen). […]
Parasites were counted in a KOVA counting chamber and diluted to 1.5 × 10^4 parasites/well of a 96-well plate (200 μL total volume), upon which the prediluted test compounds were added. […] After 3 days of incubation, parasite growth was assessed fluorimetrically after addition of 50 μL of resazurin per well. After 6 h (T. b. rhodesiense) or 24 h (T. b. brucei) at 37 °C, fluorescence is measured (λex 550 nm, λem 590 nm). Parasite viability was assessed using the resazurin viability assay, and drug activity was calculated as percentage viability reduction compared to nontreated controls.

A further series deals with Leishmania infantum. Nature of the series: Antiparasitic assay, L. infantum. The format is cell-based. To be noted: mean ± SD, n ≥ 2, read-out: pIC50 L. infantum (converted). The method, then:
First, they were tested in vitro against the protozoan species Trypanosoma cruzi and Leishmania infantum and the clinically relevant T. b. rhodesiense.
as §1, with “An initial activation step of 10 min at 45 °C and 10 min at 95 °C was used, followed by the amplification step for 40 cycles (15 s at 95 °C, 15 s 50 °C and 15 s at 60 °C). At last, the melting curves were generated with an increment of 0.3 °C (15 s at 95 °C 1 min at 45 °C and 15 s at 95 °C). The PCR was run on the Step One Plus real-time PCR system (Applied Biosystems, California, USA). An additional qPCR was performed with the mouse housekeeping gene Eef2 to confirm successful RNA extraction.” left out

Series [1] can be described thus: In vivo pharmacokinetics in non-infected mice. As for the experimental part: as §1
Blood drops were sampled before treatment and at 0.5, 1, 2, 4, 6, and 24 h after PO dosage; samples after IP dosage were identical with an additional time point of 0.25 h. The blood drops were analyzed adopting the dry blood spot technique and analysis by LC-MS^2. Briefly, blood was collected from the retro-orbital complex using capillary tubes and dropped (15 μL) on WhatmanFTADMPK cards (B). The spots were left to air-dry at room temperature for at least 2 h. For analysis, a 6 mm disk was punched out and extracted in 75:25 MeCN/water containing the internal standard tolbutamide. The amount of parent compound was determined using liquid chromatography (UPLC) (Waters Aquity) coupled with tandem quadrupole mass spectrometry (MS^2) (Waters Xevo) equipped with an electrospray ionization (ESI) interface and operated in multiple reaction monitoring mode. Standard curves in whole blood were made for calibration and validation. Standard PK parameters were determined using Topfit software.
Brain tissue of the animals was collected on ice at autopsy 24 h post-treatment (50 mg/kg oral dose) after perfusion. […] The tissues were immediately homogenized using a GentleMacs tissue homogenizer. The tissue samples were subjected to protein precipitation by adding MeCN, followed by a centrifugation step at 4 °C for 5 min at 21, 130 g. The supernatant was further diluted in 75:25 MeCN/water for LC-MS^2 analysis as described above.

For series [2] the following is noted: mouse, microsomes.
For series [3] the following is noted: human, microsomes, 1 h.
Setting [4] is: female, Swiss, mouse, in vivo, ip, 10 mg/kg.
The mark [5] stands for this setting: female, Swiss, mouse, in vivo, po, 50 mg/kg.

Where two headings read alike, the source gives them in different places.

Broadly, the AUC(0-t) is exposure summed from dosing to a finite time, without extrapolation to infinity. A lower AUC(0-t) goes with low exposure. Broadly, the Cmax is the highest concentration seen after dosing. The term Tmax denotes the time from dosing to the highest level. The half-life is the time needed for the level to fall by half in the phase considered. With `CC(C)(C)c1n[nH]c2c(=O)[nH]c(-c3ccc(F)cc3)nc12` [31c, 3-(tert-Butyl)-5-(4-fluorophenyl)-1,6-dihydro-7H-pyrazolo[4,3-d]pyrimidin-7-one], in the series on T. b. brucei (T. brucei, versus compound 2), the “improved potency compared to 2” value is 4 fold. In the series with T. b. brucei (72 h, T. b. brucei Squib bloodstream form, 72 h exposure, mean ± SD, n ≥ 2, read-out: pIC50 T. brucei (converted)), the IC50 is 15.8 nM. For the same compound, the IC50 in the series on T. b. brucei (read-out: IC50 against T. b. brucei) worked out at 17 nM. In the series on MRC-5 cells, the IC50 is > 63100 nM. In addition, in the series with T. b. rhodesiense, the IC50 is 10 nM. Besides, the IC50 in the series on Leishmania infantum is > 63100 nM. Moreover, the “blood concentration exceeding the in vitro IC50 against T. brucei” value in series [1] (both routes (10 mg/kg IP, 50 mg/kg PO)) is given as “more than 300 fold”. Further, in series [1] (setting [4]), the AUC(0-t) at 24 h was determined as 2470 ± 1560 ng·h/mL, the Cl came out at 326 ± 148, the peak concentration (Cmax) at 24 h stood at 5.05 ± 1.51 µM and the Tmax at 24 h came to 0.5 ± 0.3 h. Also, the half-life at 24 h in series [1] (setting [4]) is 1.56 ± 0.5 h. For the same compound, in series [1] (setting [5]), the “AUC0–6 h higher compared with 2” value is given as “more than 7 fold”, the AUC(0-t) at 24 h turned out to be 43400 ng·h/mL, the Cl is given as 11 ± 1 and the highest level (Cmax at 24 h) was 10.9 ± 1.69 µM. Besides, in series [1] (setting [5]), the time of peak concentration (Tmax) at 24 h was 6 h, the concentration at 24 h came out at 0.296 µM and the half-life at 24 h is 3.51 ± 1.34 h. Moreover, the “Phase-I metabolic stability (in words)” value in series [2] was “improved metabolic stability compared with 2”. For the same compound, the parent compound remaining entry in series [2] (1 h) is “at least 69%”. Moreover, in series [3], the parent compound remaining result is “at least 69%”.
